Assay results published in patent US20120270237A9, “METHODS FOR THE IDENTIFICATION OF KINASE INTERACTING MOLECULES AND FOR THE PURIFICATION OF KINASE PROTEINS” (Cellzone AG, priority 2009, published 2012).

Experiments:
Experiment in all cases: Kinobeads competition binding with immobilized CZC25342, mixed HeLa placenta lysates (Example 5, Table 7)
[1] = target: T1, kinases from mixed HeLa placenta lysates (Homo sapiens, UniProt O14965); details: kinase AurA; 10 μM free compound; HeLa Placenta lysate mix
T1 construct: capturing and identification of kinases from mixed HeLa placenta lysates; endogenous in cells; host or cells: mixed lysate of HeLa cells and placenta tissue
Description: (§1) To one aliquot of cell lysate 10 μM of the free compound (FIG. 2, CZC25342) was added and allowed to bind to proteins in the lysate. Then the affinity matrix with the immobilized compound was added to capture proteins that were not interacting with the previously added free compound. Beads were separated from the lysate and bead bound proteins were eluted in SDS sample buffer and subsequently separated by SDS-Polyacrylamide gel electrophoresis (FIG. 11). Suitable gel bands were cut out and subjected to in-gel proteolytic digestion with trypsin. The second lysate aliquot was processed identically, however no free compound was added (DMSO solvent control). Peptides originating from samples 1 and 2 were labeled with iTRAQ reagents (iTRAQ 114 and iTRAQ 117) and the combined samples were analyzed with a nano-flow liquid chromatography system coupled online to a tandem mass spectrometer (LC-MS/MS) experiment followed by iTRAQ reporter ion quantification in the MS/MS spectra as described in Example 2. The identified kinases are shown in Table 7 including the percent competition values for the sample to which 10 μM free compound had been added. In total of 83 different kinases were identified and competed by different degrees.

[2] = target: T2, kinases from mixed HeLa placenta lysates (Homo sapiens, UniProt O43353); details: kinase RIPK2; 10 μM free compound; HeLa Placenta lysate mix
T2 construct: capturing and identification of kinases from mixed HeLa placenta lysates; endogenous in cells; host or cells: mixed lysate of HeLa cells and placenta tissue
Description: as §1

[3] = target: T3, kinases from mixed HeLa placenta lysates (Homo sapiens, UniProt P07947); details: kinase YES; 10 μM free compound; HeLa Placenta lysate mix
T3 construct: capturing and identification of kinases from mixed HeLa placenta lysates; endogenous in cells; host or cells: mixed lysate of HeLa cells and placenta tissue
Description: as §1

[4] = target: T4, kinases from mixed HeLa placenta lysates (Homo sapiens, UniProt P15735); details: kinase PHKg2; 10 μM free compound; HeLa Placenta lysate mix
T4 construct: capturing and identification of kinases from mixed HeLa placenta lysates; endogenous in cells; host or cells: mixed lysate of HeLa cells and placenta tissue
Description: as §1

[5] = target: T5, kinases from mixed HeLa placenta lysates (Homo sapiens, UniProt P16591); details: kinase FER; 10 μM free compound; HeLa Placenta lysate mix
T5 construct: capturing and identification of kinases from mixed HeLa placenta lysates; endogenous in cells; host or cells: mixed lysate of HeLa cells and placenta tissue
Description: as §1

[6] = target: T6, kinases from mixed HeLa placenta lysates (Homo sapiens, UniProt P29597); details: kinase TYK2; 10 μM free compound; HeLa Placenta lysate mix
T6 construct: capturing and identification of kinases from mixed HeLa placenta lysates; endogenous in cells; host or cells: mixed lysate of HeLa cells and placenta tissue
Description: as §1

[7] = target: T7, kinases from mixed HeLa placenta lysates (Homo sapiens, UniProt P30291); details: kinase Wee1; 10 μM free compound; HeLa Placenta lysate mix
T7 construct: capturing and identification of kinases from mixed HeLa placenta lysates; endogenous in cells; host or cells: mixed lysate of HeLa cells and placenta tissue
Description: as §1

[8] = target: T8, kinases from mixed HeLa placenta lysates (Homo sapiens, UniProt P35968); details: kinase KDR; 10 μM free compound; HeLa Placenta lysate mix
T8 construct: capturing and identification of kinases from mixed HeLa placenta lysates; endogenous in cells; host or cells: mixed lysate of HeLa cells and placenta tissue
Description: as §1

[9] = target: T9, kinases from mixed HeLa placenta lysates (Homo sapiens, UniProt P36897); details: kinase TGFbR1; 10 μM free compound; HeLa Placenta lysate mix
T9 construct: capturing and identification of kinases from mixed HeLa placenta lysates; endogenous in cells; host or cells: mixed lysate of HeLa cells and placenta tissue
Description: as §1

[10] = target: T10, kinases from mixed HeLa placenta lysates (Homo sapiens, UniProt P43405); details: kinase SYK; 10 μM free compound; HeLa Placenta lysate mix
T10 construct: capturing and identification of kinases from mixed HeLa placenta lysates; endogenous in cells; host or cells: mixed lysate of HeLa cells and placenta tissue
Description: as §1

[11] = target: T11, kinases from mixed HeLa placenta lysates (Homo sapiens, UniProt P49841); details: kinase GSK3B; 10 μM free compound; HeLa Placenta lysate mix
T11 construct: capturing and identification of kinases from mixed HeLa placenta lysates; endogenous in cells; host or cells: mixed lysate of HeLa cells and placenta tissue
Description: as §1

[12] = target: T12, kinases from mixed HeLa placenta lysates (Homo sapiens, UniProt P51812); details: kinase RSK2; 10 μM free compound; HeLa Placenta lysate mix
T12 construct: capturing and identification of kinases from mixed HeLa placenta lysates; endogenous in cells; host or cells: mixed lysate of HeLa cells and placenta tissue
Description: as §1

[13] = target: T13, kinases from mixed HeLa placenta lysates (Homo sapiens, UniProt Q02763); details: kinase TIE2; 10 μM free compound; HeLa Placenta lysate mix
T13 construct: capturing and identification of kinases from mixed HeLa placenta lysates; endogenous in cells; host or cells: mixed lysate of HeLa cells and placenta tissue
Description: as §1

[14] = target: T14, kinases from mixed HeLa placenta lysates (Homo sapiens, UniProt Q08345); details: kinase DDR1; 10 μM free compound; HeLa Placenta lysate mix
T14 construct: capturing and identification of kinases from mixed HeLa placenta lysates; endogenous in cells; host or cells: mixed lysate of HeLa cells and placenta tissue
Description: as §1

[15] = target: T15, kinases from mixed HeLa placenta lysates (Homo sapiens, UniProt Q12866); details: kinase MER; 10 μM free compound; HeLa Placenta lysate mix
T15 construct: capturing and identification of kinases from mixed HeLa placenta lysates; endogenous in cells; host or cells: mixed lysate of HeLa cells and placenta tissue
Description: as §1

[16] = target: T16, kinases from mixed HeLa placenta lysates (Homo sapiens, UniProt Q13131); details: kinase AMPKa1; 10 μM free compound; HeLa Placenta lysate mix
T16 construct: capturing and identification of kinases from mixed HeLa placenta lysates; endogenous in cells; host or cells: mixed lysate of HeLa cells and placenta tissue
Description: as §1

[17] = target: T17, kinases from mixed HeLa placenta lysates (Homo sapiens, UniProt Q13163); details: kinase MAP2K5; 10 μM free compound; HeLa Placenta lysate mix
T17 construct: capturing and identification of kinases from mixed HeLa placenta lysates; endogenous in cells; host or cells: mixed lysate of HeLa cells and placenta tissue
Description: as §1

[18] = target: T18, kinases from mixed HeLa placenta lysates (Homo sapiens, UniProt Q5TCX8); details: kinase MLK4; 10 μM free compound; HeLa Placenta lysate mix
T18 construct: capturing and identification of kinases from mixed HeLa placenta lysates; endogenous in cells; host or cells: mixed lysate of HeLa cells and placenta tissue
Description: as §1

[19] = target: T19, kinases from mixed HeLa placenta lysates (Homo sapiens, UniProt Q6PHR2); details: kinase ULK3; 10 μM free compound; HeLa Placenta lysate mix
T19 construct: capturing and identification of kinases from mixed HeLa placenta lysates; endogenous in cells; host or cells: mixed lysate of HeLa cells and placenta tissue
Description: as §1

[20] = target: T20, kinases from mixed HeLa placenta lysates (Homo sapiens, UniProt Q8TD19); details: kinase NEK9; 10 μM free compound; HeLa Placenta lysate mix
T20 construct: capturing and identification of kinases from mixed HeLa placenta lysates; endogenous in cells; host or cells: mixed lysate of HeLa cells and placenta tissue
Description: as §1

[21] = target: T21, kinases from mixed HeLa placenta lysates (Homo sapiens, UniProt Q96RR4); details: kinase CaMKK2; 10 μM free compound; HeLa Placenta lysate mix
T21 construct: capturing and identification of kinases from mixed HeLa placenta lysates; endogenous in cells; host or cells: mixed lysate of HeLa cells and placenta tissue
Description: as §1

[22] = target: T22, kinases from mixed HeLa placenta lysates (Homo sapiens, UniProt Q9NWZ3); details: kinase IRAK4; 10 μM free compound; HeLa Placenta lysate mix
T22 construct: capturing and identification of kinases from mixed HeLa placenta lysates; endogenous in cells; host or cells: mixed lysate of HeLa cells and placenta tissue
Description: as §1

[23] = target: T23, kinases from mixed HeLa placenta lysates (Homo sapiens, UniProt Q9Y2U5); details: kinase MAP3K2; 10 μM free compound; HeLa Placenta lysate mix
T23 construct: capturing and identification of kinases from mixed HeLa placenta lysates; endogenous in cells; host or cells: mixed lysate of HeLa cells and placenta tissue
Description: as §1

[24] = target: T24, kinases from mixed HeLa placenta lysates (Homo sapiens, UniProt Q9Y616); details: kinase IRAK3; 10 μM free compound; HeLa Placenta lysate mix
T24 construct: capturing and identification of kinases from mixed HeLa placenta lysates; endogenous in cells; host or cells: mixed lysate of HeLa cells and placenta tissue
Description: as §1

T14 sequence (Q08345 19-913): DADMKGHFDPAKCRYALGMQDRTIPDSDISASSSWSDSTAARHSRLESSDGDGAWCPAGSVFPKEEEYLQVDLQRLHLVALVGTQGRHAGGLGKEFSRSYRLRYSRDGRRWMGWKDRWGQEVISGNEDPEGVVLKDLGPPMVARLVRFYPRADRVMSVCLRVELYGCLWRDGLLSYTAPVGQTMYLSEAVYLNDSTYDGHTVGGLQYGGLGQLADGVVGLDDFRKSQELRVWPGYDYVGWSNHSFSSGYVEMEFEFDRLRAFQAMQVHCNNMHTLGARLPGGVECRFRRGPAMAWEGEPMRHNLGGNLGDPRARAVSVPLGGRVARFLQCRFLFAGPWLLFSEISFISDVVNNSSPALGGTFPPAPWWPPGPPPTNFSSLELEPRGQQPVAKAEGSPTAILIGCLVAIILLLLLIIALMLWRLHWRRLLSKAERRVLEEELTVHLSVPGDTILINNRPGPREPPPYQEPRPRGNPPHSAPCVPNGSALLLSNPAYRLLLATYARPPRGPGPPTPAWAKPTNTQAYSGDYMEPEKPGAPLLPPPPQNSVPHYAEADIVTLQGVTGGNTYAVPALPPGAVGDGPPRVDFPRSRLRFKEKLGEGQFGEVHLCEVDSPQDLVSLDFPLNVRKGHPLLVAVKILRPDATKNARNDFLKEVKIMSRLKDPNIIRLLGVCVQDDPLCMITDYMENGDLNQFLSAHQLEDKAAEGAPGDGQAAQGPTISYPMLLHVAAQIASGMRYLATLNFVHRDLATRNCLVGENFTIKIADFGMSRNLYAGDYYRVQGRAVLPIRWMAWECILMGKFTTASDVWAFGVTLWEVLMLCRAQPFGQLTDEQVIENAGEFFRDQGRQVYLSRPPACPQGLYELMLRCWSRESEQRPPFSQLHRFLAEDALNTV
T1 sequence (O14965 whole entry): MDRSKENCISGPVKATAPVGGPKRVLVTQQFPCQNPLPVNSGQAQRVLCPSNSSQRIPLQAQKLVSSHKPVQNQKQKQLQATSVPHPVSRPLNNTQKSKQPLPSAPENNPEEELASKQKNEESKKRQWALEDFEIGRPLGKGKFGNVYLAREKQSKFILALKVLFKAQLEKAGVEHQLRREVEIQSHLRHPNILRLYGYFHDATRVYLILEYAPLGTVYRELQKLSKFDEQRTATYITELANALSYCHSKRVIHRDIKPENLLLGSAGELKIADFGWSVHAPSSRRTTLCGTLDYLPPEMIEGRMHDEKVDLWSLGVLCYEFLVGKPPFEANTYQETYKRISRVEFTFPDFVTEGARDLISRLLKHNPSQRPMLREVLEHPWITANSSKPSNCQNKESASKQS
T11 sequence (P49841 whole entry): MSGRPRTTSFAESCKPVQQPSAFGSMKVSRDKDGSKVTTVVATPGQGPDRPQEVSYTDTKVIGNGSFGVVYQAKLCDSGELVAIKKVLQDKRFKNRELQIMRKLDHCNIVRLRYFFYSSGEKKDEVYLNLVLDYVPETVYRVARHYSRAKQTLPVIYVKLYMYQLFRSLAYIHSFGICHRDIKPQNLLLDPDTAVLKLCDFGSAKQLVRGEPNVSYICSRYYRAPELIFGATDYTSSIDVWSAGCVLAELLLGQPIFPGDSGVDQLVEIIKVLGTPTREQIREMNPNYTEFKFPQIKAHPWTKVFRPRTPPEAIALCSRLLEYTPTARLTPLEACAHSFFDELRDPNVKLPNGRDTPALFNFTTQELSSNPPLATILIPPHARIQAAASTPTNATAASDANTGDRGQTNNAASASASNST
T13 sequence (Q02763 23-1124): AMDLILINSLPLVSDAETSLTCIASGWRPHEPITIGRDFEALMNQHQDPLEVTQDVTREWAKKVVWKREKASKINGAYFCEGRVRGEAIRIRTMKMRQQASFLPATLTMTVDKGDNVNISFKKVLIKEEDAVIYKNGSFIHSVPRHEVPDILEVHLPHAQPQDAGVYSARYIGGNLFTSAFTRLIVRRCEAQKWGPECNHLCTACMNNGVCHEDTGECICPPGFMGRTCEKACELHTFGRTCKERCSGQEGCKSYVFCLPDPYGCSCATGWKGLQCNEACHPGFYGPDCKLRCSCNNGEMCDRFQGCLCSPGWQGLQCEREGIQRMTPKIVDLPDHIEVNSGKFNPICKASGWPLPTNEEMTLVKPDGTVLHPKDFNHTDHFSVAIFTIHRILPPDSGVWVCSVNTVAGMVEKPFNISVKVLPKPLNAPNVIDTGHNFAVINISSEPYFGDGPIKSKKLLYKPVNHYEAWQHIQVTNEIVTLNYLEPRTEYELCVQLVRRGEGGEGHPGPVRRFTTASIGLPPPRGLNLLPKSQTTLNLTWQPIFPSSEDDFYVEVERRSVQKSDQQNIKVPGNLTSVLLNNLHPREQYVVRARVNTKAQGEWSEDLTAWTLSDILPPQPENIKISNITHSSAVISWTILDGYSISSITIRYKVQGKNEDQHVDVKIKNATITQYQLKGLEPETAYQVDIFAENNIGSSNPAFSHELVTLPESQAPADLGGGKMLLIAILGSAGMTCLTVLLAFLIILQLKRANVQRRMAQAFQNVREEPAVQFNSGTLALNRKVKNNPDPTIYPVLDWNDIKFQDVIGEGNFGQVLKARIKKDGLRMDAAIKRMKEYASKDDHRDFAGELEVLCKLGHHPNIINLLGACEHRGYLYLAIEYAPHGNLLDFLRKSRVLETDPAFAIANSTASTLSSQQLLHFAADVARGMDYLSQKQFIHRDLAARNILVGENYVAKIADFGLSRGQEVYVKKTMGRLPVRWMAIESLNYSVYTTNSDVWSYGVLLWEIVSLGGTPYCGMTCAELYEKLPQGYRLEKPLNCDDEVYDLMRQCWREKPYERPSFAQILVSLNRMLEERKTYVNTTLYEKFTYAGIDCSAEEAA
T15 sequence (Q12866 21-999): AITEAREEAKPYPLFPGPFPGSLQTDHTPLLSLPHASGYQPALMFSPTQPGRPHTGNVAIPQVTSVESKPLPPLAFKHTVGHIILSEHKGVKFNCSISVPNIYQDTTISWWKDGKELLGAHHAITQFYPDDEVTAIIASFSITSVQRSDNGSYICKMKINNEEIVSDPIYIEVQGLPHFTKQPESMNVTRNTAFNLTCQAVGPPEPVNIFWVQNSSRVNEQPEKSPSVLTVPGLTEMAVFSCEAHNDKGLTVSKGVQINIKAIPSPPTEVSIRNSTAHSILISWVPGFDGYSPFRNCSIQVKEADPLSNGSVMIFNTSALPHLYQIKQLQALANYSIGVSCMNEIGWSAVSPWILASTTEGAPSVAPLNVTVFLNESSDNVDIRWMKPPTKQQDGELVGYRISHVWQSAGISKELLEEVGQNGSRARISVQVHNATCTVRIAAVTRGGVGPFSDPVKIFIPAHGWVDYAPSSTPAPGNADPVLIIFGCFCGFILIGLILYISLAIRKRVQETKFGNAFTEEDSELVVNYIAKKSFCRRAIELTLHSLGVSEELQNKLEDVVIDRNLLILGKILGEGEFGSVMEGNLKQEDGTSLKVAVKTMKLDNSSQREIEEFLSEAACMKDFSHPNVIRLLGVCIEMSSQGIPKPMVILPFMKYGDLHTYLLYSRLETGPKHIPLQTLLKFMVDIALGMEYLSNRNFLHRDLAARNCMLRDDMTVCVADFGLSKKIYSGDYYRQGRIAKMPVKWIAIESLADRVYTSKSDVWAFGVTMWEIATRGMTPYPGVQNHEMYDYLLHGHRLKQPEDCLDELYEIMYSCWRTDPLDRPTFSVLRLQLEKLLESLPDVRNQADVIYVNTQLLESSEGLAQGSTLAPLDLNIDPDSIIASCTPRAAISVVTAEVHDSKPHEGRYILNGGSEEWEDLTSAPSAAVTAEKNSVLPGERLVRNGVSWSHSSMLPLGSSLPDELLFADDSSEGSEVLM
T12 sequence (P51812 whole entry): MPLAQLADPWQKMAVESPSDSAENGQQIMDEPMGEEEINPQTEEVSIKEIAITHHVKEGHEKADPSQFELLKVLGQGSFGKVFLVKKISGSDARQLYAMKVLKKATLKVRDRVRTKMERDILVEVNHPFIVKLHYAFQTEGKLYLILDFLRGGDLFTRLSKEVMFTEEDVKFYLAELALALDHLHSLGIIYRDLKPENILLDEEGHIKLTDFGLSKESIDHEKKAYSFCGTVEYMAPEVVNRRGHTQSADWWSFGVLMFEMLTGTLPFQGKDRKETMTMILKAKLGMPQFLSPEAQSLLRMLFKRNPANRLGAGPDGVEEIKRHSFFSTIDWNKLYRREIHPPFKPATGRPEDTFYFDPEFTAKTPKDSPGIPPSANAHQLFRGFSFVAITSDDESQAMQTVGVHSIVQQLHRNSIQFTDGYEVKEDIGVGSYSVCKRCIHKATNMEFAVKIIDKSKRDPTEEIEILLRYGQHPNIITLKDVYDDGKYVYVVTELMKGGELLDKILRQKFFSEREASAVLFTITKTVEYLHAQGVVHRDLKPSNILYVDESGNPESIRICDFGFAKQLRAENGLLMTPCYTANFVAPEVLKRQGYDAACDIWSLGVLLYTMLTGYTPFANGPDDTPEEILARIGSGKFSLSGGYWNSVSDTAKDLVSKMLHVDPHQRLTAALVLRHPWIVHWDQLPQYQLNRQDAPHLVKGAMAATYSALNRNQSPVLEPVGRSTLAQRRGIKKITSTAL
T19 sequence (Q6PHR2 whole entry): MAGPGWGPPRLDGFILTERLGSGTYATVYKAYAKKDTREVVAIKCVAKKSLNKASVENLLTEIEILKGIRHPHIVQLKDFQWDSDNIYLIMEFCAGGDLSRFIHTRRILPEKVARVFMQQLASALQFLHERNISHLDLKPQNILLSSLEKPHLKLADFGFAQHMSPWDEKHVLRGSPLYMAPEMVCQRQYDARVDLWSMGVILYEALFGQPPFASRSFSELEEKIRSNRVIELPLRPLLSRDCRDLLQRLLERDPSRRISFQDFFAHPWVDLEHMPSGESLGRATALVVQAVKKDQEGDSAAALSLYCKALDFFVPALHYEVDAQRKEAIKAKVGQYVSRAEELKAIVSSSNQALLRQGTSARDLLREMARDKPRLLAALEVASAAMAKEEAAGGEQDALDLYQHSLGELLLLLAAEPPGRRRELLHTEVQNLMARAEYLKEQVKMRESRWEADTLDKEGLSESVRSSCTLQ

CS(=O)(=O)Nc1ccccc1Nc1nc(Nc2cccc(OCCN)c2)ncc1F [CZC25342, N-(2-(2-(3-(2-aminoethoxy)phenylamino)-5-fluoropyrimidin-4-ylamino)phenyl)methanesulfonamide]
Competition % AurA [1]: 93.6% | Competition % RIPK2 [2]: 94.4% | Competition % YES [3]: 91.7% | Competition % PHKg2 [4]: 93.4% | Competition % FER [5]: 96.7% | Competition % TYK2 [6]: 96.6% | Competition % Wee1 [7]: 97.5% | Competition % KDR [8]: 92.5% | Competition % TGFbR1 [9]: 95.6% | Competition % SYK [10]: 94.8% | Competition % GSK3B [11]: 92.5% | Competition % RSK2 [12]: 95.6% | Competition % TIE2 [13]: 91.4% | Competition % DDR1 [14]: 94.1% | Competition % MER [15]: 96.5% | Competition % AMPKa1 [16]: 95.2% | Competition % MAP2K5 [17]: 87.4% | Competition % MLK4 [18]: 85.8% | Competition % ULK3 [19]: 94.8% | Competition % NEK9 [20]: 83% | Competition % CaMKK2 [21]: 96.3% | Competition % IRAK4 [22]: 95.6% | Competition % MAP3K2 [23]: 94.7% | Competition % IRAK3 [24]: 86.2%
